Measurements reported in US8133506B2, “Drug delivery systems comprising weakly basic drugs and organic acids” (Aptalis Pharmatech, Inc., priority 2008, dated 2012).
≈ marks a conversion by molar mass, not a printed value. Counter-ions that a name gives are not always drawn. Like-named read-outs stand apart in the source and are kept apart here.

What was measured:
[1] = pH-dependent solubility in aqueous buffer
[2] = Solubility in organic acid buffers (fumaric, aspartic, glutamic acid)
physchem [3] = assay: physchem
[4] = cited from earlier work
[5] = cited from earlier work; remark: listed apart in the source
physchem [6] = assay: physchem; remark: listed apart in the source
[7] = pH 6.8, aqueous buffer, solubility

SMILES: O=C1CN=C(c2ccccc2Cl)c2cc([N+](=O)[O-])ccc2N1 [Clonazepam]
- solubility ([1]; pH 2.2, aqueous buffer): 11.4 µg/mL (≈ 36.1 µM)
- solubility ([1]; pH 2.8, aqueous buffer): 10.2 µg/mL (≈ 32.3 µM)
- solubility ([1]; pH 3.2, aqueous buffer): 9.6 µg/mL (≈ 30.4 µM)
- solubility ([1]; pH 3.8, aqueous buffer): 9.2 µg/mL (≈ 29.1 µM)
- solubility ([1]; pH 4.2, aqueous buffer): 9.1 µg/mL (≈ 28.8 µM)
- solubility ([1]; pH 4.8, aqueous buffer): 8.6 µg/mL (≈ 27.2 µM)
- solubility ([1]; pH 5.4, aqueous buffer): 8.4 µg/mL (≈ 26.6 µM)
- solubility ([1]; pH 6.2, aqueous buffer): 8 µg/mL (≈ 25.3 µM)
- solubility ([1]; physiological pHs): practically insoluble
- solubility ([2]; buffer at pH 2.3, higher concentration of fumaric acid): about 11.6 μg/mL
- solubility ([2]; buffer at pH 6.8, lower concentration of fumaric acid): ~6.9 µg/mL (≈ 21.9 µM)
- solubility ([2]; pH 2.3, aqueous buffer): 11.6 µg/mL (≈ 36.7 µM)
- solubility ([2]; pH 2.8, aqueous buffer): 10.3 µg/mL (≈ 32.6 µM)
- solubility ([2]; pH 3.2, aqueous buffer): 9.6 µg/mL (≈ 30.4 µM)
- solubility ([2]; pH 3.7, aqueous buffer): 9.8 µg/mL (≈ 31 µM)
- solubility ([2]; pH 5.5, aqueous buffer): 290 µg/mL (≈ 919 µM)

SMILES: COc1cc(C(C)=O)ccc1OCCCN1CCC(c2noc3cc(F)ccc23)CC1 [Iloperidone]
- solubility (physchem [3]; pH 1.2, simulated gastric fluid, Solubility of Iloperidone in Aqueous Buffer): 3900 µg/mL (≈ 9140 µM)
- solubility (physchem [3]; pH 3.01, aqueous buffer, Solubility of Iloperidone in Aqueous Buffer): 1440 µg/mL (≈ 3370 µM)
- solubility (physchem [3]; pH 3.06, aqueous buffer, Solubility of Iloperidone in Aqueous Buffer): 917 µg/mL (≈ 2150 µM)
- solubility (physchem [3]; pH 4.08, aqueous buffer, Solubility of Iloperidone in Aqueous Buffer): 681 µg/mL (≈ 1600 µM)
- solubility (physchem [3]; pH 4.46, aqueous buffer, Solubility of Iloperidone in Aqueous Buffer): 586 µg/mL (≈ 1370 µM)
- solubility (physchem [3]; pH 5.09, aqueous buffer, Solubility of Iloperidone in Aqueous Buffer): 341 µg/mL (≈ 800 µM)
- solubility (physchem [3]; pH 6.11, aqueous buffer, Solubility of Iloperidone in Aqueous Buffer): 117 µg/mL (≈ 274 µM)
- solubility (physchem [3]; [7]): ~30 µg/mL (≈ 70.3 µM)
- solubility (physchem [3]; pH 7.02, aqueous buffer, Solubility of Iloperidone in Aqueous Buffer): 11 µg/mL (≈ 25.8 µM)
- solubility (physchem [3]; simulated gastric fluid, solubility): ~3000 µg/mL (≈ 7030 µM)

SMILES: Cc1nccn1CC1CCc2c(c3ccccc3n2C)C1=O (stereo not drawn) [Ondansetron HCl, ondansetron hydrochloride]
- elimination half-life ([4]; average): approximately 3.8±1 hrs
- absorption from the gastrointestinal tract ([4]; in vivo): well absorbed
- solubility ([5]; low pH gastric fluids): freely soluble
- solubility ([5]; pH >6): practically insoluble
- solubility (physchem [6]; pH 2.01, aqueous buffer): 26900 µg/mL
- solubility (physchem [6]; pH 2.14, aqueous buffer): 27000 µg/mL
- solubility (physchem [6]; pH 2.4, aqueous buffer): 26100 µg/mL
- solubility (physchem [6]; pH 2.75, aqueous buffer): 26200 µg/mL
- solubility (physchem [6]; pH 3.49, aqueous buffer): 26000 µg/mL
- solubility (physchem [6]; pH 4.05, aqueous buffer): 26100 µg/mL
- solubility (physchem [3]; pH 2.2, aqueous buffer, Solubility of Ondansetron HCl in Aqueous Buffer): 23300 µg/mL
- solubility (physchem [3]; pH 3.2, aqueous buffer, Solubility of Ondansetron HCl in Aqueous Buffer): 25700 µg/mL
- solubility (physchem [3]; pH 4.2, aqueous buffer, Solubility of Ondansetron HCl in Aqueous Buffer): 10900 µg/mL
- solubility (physchem [3]; pH 5, aqueous buffer, Solubility of Ondansetron HCl in Aqueous Buffer): 3600 µg/mL
- solubility (physchem [3]; pH 5.6, aqueous buffer, Solubility of Ondansetron HCl in Aqueous Buffer): 1700 µg/mL
- solubility (physchem [3]; pH 6.2, aqueous buffer, Solubility of Ondansetron HCl in Aqueous Buffer): 400 µg/mL
- solubility (physchem [3]; pH 6.8, aqueous buffer, Solubility of Ondansetron HCl in Aqueous Buffer): 36 µg/mL
- solubility (physchem [3]; [7]): < 50 µg/mL
- solubility (physchem [3]; pH 7, aqueous buffer, Solubility of Ondansetron HCl in Aqueous Buffer): 25 µg/mL
